The target of the experiment is thioredoxin reductase (TrxR, TVAG_474980) (Trichomonas vaginalis, UniProt A0A8U0WQ27). The experiment can be described thus: DTNB reduction assay with NADPH, recombinant TrxR and Trx, absorbance at […] nm. Format: biochemical.

Take `CC(=O)OC[C@H]1O[C@@H]([S-])[C@H](OC(C)=O)[C@@H](OC(C)=O)[C@@H]1OC(C)=O.CCP(CC)CC.[Au+]` [AF, auranofin]: the IC50 worked out at 0.085 µM.

Broadly, the IC50 is the concentration that gives 50% inhibition.

The record behind these values is article PMC5154799 (International journal of antimicrobial agents, 2016).
